Laboratory results from patent US10029986B2, “Alkynyl pyridine-substituted amide compound and pesticide” (NISSAN CHEMICAL INDUSTRIES, LTD., priority 2014, dated 2018).

Assays:
Sclerotinia sclerotiorum = test: Test on the preventive effect against cucumber stem rot; type: in vivo; details: 48 h, test solution A 500 ppm, 5 ml per pot, agar block inoculation, 2 days at 20° C.
Method: (§1) Compounds of the present invention were dissolved in a solvent for emulsion (a mixture of Sorpol (registered trademark) 3005XL (manufactured by Toho Chemical Industry Co., Ltd.): N-methylpyrrolidone: Solvesso (registered trademark) 200 (manufactured by ExxonMobil Chemical) in a ratio of 1:5:2) to prepare 20 wt % emulsifiable concentrates. Then, distilled water was added to dilute the emulsifiable concentrates to the prescribed concentration (500 ppm), and the obtained solutions were used in the following the Test Examples 1 to 8. Cucumber (varieties: Sagami Hanjiro) was seeded in 90 cm^3 plastic pot, and at the cotyledon stage, 5 ml per pot of test solution A of the compounds of the present invention was applied. After drying in air, the pot was transferred in a plastic container, and an agar blocks (diameter: 5 mm) containing Sclerotinia sclerotiorum which was preliminarily cultivated in a PDA medium was inoculated to the seed leaves of the cucumber treated with the solution. After the inoculation, the plastic container was covered with a plastic sheet, and placed at 20° C. and humidified for 2 days, thus the proportion of the formed lesion in the inoculated leaves were measured to calculate the control value in accordance with the same formula as in the Test Example 1. The test was carried out in duplicate.

Botrytis cinerea [1] = test: Test on the preventive effect against cucumber gray mold (mycelium inoculation); type: in vivo; details: 48 h, test solution A 500 ppm, 5 ml per pot, cucumber cotyledon, agar block inoculation, 2 days at 20° C.
Method: as §1, with “applied. On the next day,” for “applied. After drying in air,”, “containing Botrytis cinerea” for “containing Sclerotinia sclerotiorum”, “inoculated on” for “inoculated to”, “the cotyledon” for “the seed leaves”, “sheet, then” for “sheet, and”, “2 days. Thus” for “2 days, thus”

[2] = tested on: Barber pole worm (Haemonchus contortus); test: Insecticidal test against Barber pole worm (eggs, 96 well plate); type: in vivo; details: 96 h, test solution B 100 ppm, 10 μl per well, 25° C. dark, 4 days after treatment, read-out: efficacy (unhatched eggs and inactive larvae relative to non-treated)
Method: (§2) Compounds of the present invention were dissolved in dimethyl sulfoxide to prepare 1 wt % solutions. Then, distilled water was added to dilute the solutions to the prescribed concentration (100 ppm), and the obtained solutions were used in the following the Test Examples 9 to 12. 60 μl of a potato dextrose 1% agar medium was added to each well of a 96 well plate, and 30 μl of sterilized water containing eggs of Barber pole worm (Haemonchus contortus) (10 eggs/3 μl) was added to each well. Further, 10 μl per well of test solution B of the compounds of the present invention was added, and the plate was left at rest at 25° C. under dark conditions.

Botrytis cinerea [3] = test: Test on the preventive effect against cucumber gray mold (spore inoculation); type: in vivo; details: 72 h, test solution A 500 ppm, 5 ml per pot, cucumber cut leaves, conidium inoculation, 3 days at 20° C.
Method: Compounds of the present invention were dissolved in a solvent for emulsion (a mixture of Sorpol (registered trademark) 3005XL (manufactured by Toho Chemical Industry Co., Ltd.): N-methylpyrrolidone: Solvesso (registered trademark) 200 (manufactured by ExxonMobil Chemical) in a ratio of 1:5:2) to prepare 20 wt % emulsifiable concentrates. Then, distilled water was added to dilute the emulsifiable concentrates to the prescribed concentration (500 ppm), and the obtained solutions were used in the following the Test Examples 1 to 8. Cucumber (varieties: Sagami Hanjiro) was seeded in 90 cm^3 plastic pot, and at the cotyledon stage, 5 ml per pot of test solution A of the compounds of the present invention was applied. After drying in air, the treated leaves were cut and transferred in plastic containers. 30 μl of a mixture of a suspension of conidium of Botrytis cinerea and a dissolved PDA medium in a ratio of 1:1 was dropped on each treated leaf and inoculated. After the inoculation, the plastic containers were placed in 20° C. with humid conditions for 3 days, and the proportion of the formed lesion in the inoculated leaves were counted to calculate the control value in accordance with the same formula as in the Test Example 1. The test was carried out in duplicate.

Asperaillus niger = test: Test on the antifungal activity against Asperaillus niger; type: cell-based; details: 48 h; test solution B 100 ppm, 10 μl per well, 96 well plate, 25° C. dark, 2 days after treatment; read-out: efficacy (flora area ratio relative to non-treated well)
Method: as §2, with “spores” for “eggs”, “Asperaillus niger” for “Barber pole worm (Haemonchus contortus)”, “spores/3” for “eggs/3”, “conditions. 2 days after treatment, the flora area ratio (%) was determined to calculate the efficacy (%) relative to the non-treated well in accordance with the following formula. Efficacy (%)=[1−(flora area ratio in treated plot/flora area ratio in non-treated well)]×100” for “conditions.”

[4] = tested on: Southern root-knot nematode (Meloidogyne incoqnita); test: Insecticidal test against Southern root-knot nematode (eggs, 96 well plate); type: in vivo; details: 96 h, test solution B 100 ppm, 10 μl per well, 25° C. dark, 4 days after treatment, read-out: efficacy (unhatched eggs + inactive larvae relative to non-treated)
Method: as §2, with “Southern root-knot nematode (Meloidogyne incoqnita)” for “Barber pole worm (Haemonchus contortus)”

SMILES | pest or weed control at 500 µg/mL (Sclerotinia sclerotiorum) [%] | pest or weed control at 500 µg/mL (Botrytis cinerea [1]) [%] | pest or weed control at 100 µg/mL [2] [%] | pest or weed control at 500 µg/mL (Botrytis cinerea [3]) [%] | inhibition of growth at 100 µg/mL (Asperaillus niger) [%] | pest or weed control at 100 µg/mL [4] [%]
Cc1nc(C(F)F)c(C(=O)NCC(C)c2ncc(C#CC3CC3)cc2Cl)s1 (stereo not shown) [9-002] | ≥ 70 | ≥ 70 | ≥ 50 | ≥ 70 | ≥ 50 | –
COC(c1ncc(C#CC2CC2)cc1Cl)C(C)NC(=O)c1ccccc1C(F)(F)F (stereo not shown) [1-024] | ≥ 70 | ≥ 70 | ≥ 50 | ≥ 70 | ≥ 50 | ≥ 50
Cn1cc(C(=O)NCC2(c3ncc(C#CC4CC4)cc3Cl)CC2)c(C(F)F)n1 [8-018, N-[[1-[3-chloro-5-(cyclopropylethynyl)pyridin-2-yl]cyclopropyl]methyl]-3-difluoromethyl-1-methyl-1H-pyrazole-4-carboxamide] | ≥ 70 | ≥ 70 | ≥ 50 | ≥ 70 | – | ≥ 50
CC#Cc1cnc(CCNC(=O)c2ccccc2C(F)(F)F)c(Cl)c1 [1-001, N-[2-[3-chloro-5-(1-propynyl)pyridin-2-yl]ethyl]-2-(trifluoromethyl)benzamide] | ≥ 70 | ≥ 70 | ≥ 50 | ≥ 70 | – | ≥ 50
CC(C)(CNC(=O)c1cccnc1C(F)F)c1ncc(C#CC2CC2)cc1Cl [3-007, N-[2-[3-chloro-5-(cyclopropylethynyl)pyridin-2-yl]-2-methylpropyl]-2-(difluoromethyl)nicotinamide] | ≥ 70 | ≥ 70 | ≥ 50 | ≥ 70 | ≥ 50 | ≥ 50
CC(CNC(=O)c1cccnc1Cl)c1ncc(C#CC2CC2)cc1Cl (stereo not shown) [3-005] | ≥ 70 | ≥ 70 | ≥ 50 | ≥ 70 | ≥ 50 | ≥ 50
CC(CNC(=O)c1cccnc1C(F)F)c1ncc(C#CC2CC2)cc1Cl (stereo not shown) [3-006] | ≥ 70 | ≥ 70 | ≥ 50 | ≥ 70 | ≥ 50 | ≥ 50
CC(Cc1ncc(C#Cc2ccccc2)cc1Cl)NC(=O)c1cn(C)nc1C(F)F (stereo not shown) [8-027] | ≥ 70 | ≥ 70 | – | ≥ 70 | – | –
CC(C)(C)C#Cc1cnc(CCNC(=O)c2ccccc2C(F)(F)F)c(Cl)c1 [1-003, N-[2-[3-chloro-5-(3,3-dimethyl-1-butynyl)pyridin-2-yl]ethyl]-2-(trifluoromethyl)benzamide] | ≥ 70 | ≥ 70 | ≥ 50 | ≥ 70 | ≥ 50 | ≥ 50
O=C(NCC(c1ncc(C#CC2CC2)cc1Cl)C1CC1)c1ccccc1C(F)(F)F (stereo not shown) [1-009] | ≥ 70 | – | ≥ 50 | ≥ 70 | ≥ 50 | ≥ 50
Cn1cc(C(=O)NCC(c2ncc(C#CC3CC3)cc2Cl)C2CC2)c(C(F)F)n1 (stereo not shown) [8-009] | ≥ 70 | ≥ 70 | ≥ 50 | ≥ 70 | ≥ 50 | –
CC(Cc1ncc(C#CC2CC2)cc1Cl)NC(=O)c1cn(C)nc1C(F)F (stereo not shown) [8-024, N-[2-[3-chloro-5-(cyclopropylethynyl)pyridin-2-yl]-1-methylethyl]-3-difluoromethyl-1-methyl-1H-pyrazole-4-carboxamide] | ≥ 70 | ≥ 70 | – | ≥ 70 | – | –
Cn1cc(C(=O)NCCc2ncc(C#CC(C)(C)C)cc2Cl)c(C(F)F)n1 [8-002] | ≥ 70 | ≥ 70 | ≥ 50 | ≥ 70 | ≥ 50 | –
COC(=O)C(CNC(=O)c1cn(C)nc1C(F)F)c1ncc(C#CC2CC2)cc1Cl (stereo not shown) [8-022, 2-[3-chloro-5-(cyclopropylethynyl)pyridin-2-yl]-3-(3-difluoromethyl-1-methyl-1H-pyrazole-4-carboxamide)propionic acid methyl ester] | ≥ 70 | ≥ 70 | – | ≥ 70 | – | –
CC(NC(=O)c1ccccc1C(F)(F)F)C(OCc1ccccc1)c1ncc(C#CC2CC2)cc1Cl (stereo not shown) [1-031, N-[2-benzyloxy-2-[3-chloro-5-(cyclopropylethynyl)pyridin-2-yl]-1-methylethyl]-2-(trifluoromethyl)benzamide] | ≥ 70 | ≥ 70 | – | ≥ 70 | – | ≥ 50
CSC(CNC(=O)c1cn(C)nc1C(F)F)c1ncc(C#CC2CC2)cc1Cl (stereo not shown) [8-020, N-[2-[3-chloro-5-(cyclopropylethynyl)pyridin-2-yl]-2-(methylthio)ethyl]-3-difluoromethyl-1-methyl-1H-pyrazole-4-carboxamide] | ≥ 70 | ≥ 70 | ≥ 50 | ≥ 70 | ≥ 50 | –
COC(c1ncc(C#CC2CC2)cc1Cl)C(C)NC(=O)c1nccnc1C(F)(F)F (stereo not shown) [4-004] | ≥ 70 | ≥ 70 | ≥ 50 | ≥ 70 | – | –
